Results taken from patent US20110159019A1, “2,4-DIAMINOPYRIMIDINE COMPOUND” (priority 2008, published 2011).
Where a name gives a salt, the structure may show the parent alone.

The molecules below were run against T1, Full-length human PKCθ (Homo sapiens, UniProt Q04759) (assay: Measurement of human PKCθ enzyme inhibition activity (HTRF KinEASE S1 kit)). Details: full-length human PKCθ, ATP 30 μM, HTRF; read-out: IC50 (nM), human PKCθ enzyme inhibition.
T1 construct: Full-length human PKCθ (Carna Biosciences, final 31 ng/mL); purchased Carna Biosciences
Assay type: biochemical
Protocol: Test Method 1: Measurement of Human PKCθ Enzyme Inhibition Activity
The test was carried out using a HTRF® KinEASE™ S1 kit (CIS bio). […] Then, 3 μL of an ATP liquid (final 30 μM) was dispensed therein to carry out an enzyme reaction at room temperature for 1 hour.
Ex represents Compound No. of Examples as described later.

T1 sequence (Q04759 whole entry): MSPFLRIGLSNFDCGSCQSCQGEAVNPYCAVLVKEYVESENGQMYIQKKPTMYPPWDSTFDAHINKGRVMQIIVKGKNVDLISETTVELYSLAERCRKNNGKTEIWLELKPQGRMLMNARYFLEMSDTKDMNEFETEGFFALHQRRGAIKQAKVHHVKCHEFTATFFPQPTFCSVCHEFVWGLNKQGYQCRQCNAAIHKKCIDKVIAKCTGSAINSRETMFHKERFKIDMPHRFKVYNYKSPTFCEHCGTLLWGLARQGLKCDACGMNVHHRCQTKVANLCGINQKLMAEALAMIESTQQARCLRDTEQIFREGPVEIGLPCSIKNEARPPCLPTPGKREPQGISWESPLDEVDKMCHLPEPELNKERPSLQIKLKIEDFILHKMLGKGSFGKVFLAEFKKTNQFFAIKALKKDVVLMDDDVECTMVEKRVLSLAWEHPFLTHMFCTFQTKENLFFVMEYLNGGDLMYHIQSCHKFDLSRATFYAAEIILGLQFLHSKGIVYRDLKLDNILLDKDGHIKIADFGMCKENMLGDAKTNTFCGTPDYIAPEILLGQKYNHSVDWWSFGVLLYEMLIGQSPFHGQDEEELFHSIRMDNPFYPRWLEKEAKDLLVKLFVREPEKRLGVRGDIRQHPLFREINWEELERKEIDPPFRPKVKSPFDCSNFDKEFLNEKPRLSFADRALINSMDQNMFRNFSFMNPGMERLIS

SMILES | IC50 [nM]
CN(C)[C@@H]1[C@@H]2CC3C[C@H]1C[C@@](CNc1nc(NCc4ccccc4OC(F)(F)F)ncc1C#N)(C3)C2 (relative stereo) [Example 70] | 1.9
N#Cc1cnc(NCc2ccccc2OC(F)(F)F)nc1NC[C@]12CC3C[C@H](C1)[C@@H](NCc1cccnc1)[C@@H](C3)C2 (relative stereo) [Example 76] | 2.3
N#Cc1cnc(NCc2cccc(Cl)c2Cl)nc1NC[C@]12CC3C[C@H](C1)[C@@H](N)[C@@H](C3)C2 (relative stereo) [Example 140] | 2.5
COc1ccc(Cl)c(CNc2ncc(C#N)c(NC[C@]34CC5C[C@H](C3)[C@@H](N)[C@@H](C5)C4)n2)c1 (relative stereo) [Example 150] | 5.3
N[C@@H]1[C@@H]2CC3C[C@H]1C[C@@](CNc1nc(NCc4ccccc4OC(F)(F)F)ncc1C(F)(F)F)(C3)C2 (relative stereo) [Example 178] | 7.6
COc1ccccc1CNc1ncc(C#N)c(NC[C@]23CC4C[C@H](C2)[C@@H](NCC(CO)CO)[C@@H](C4)C3)n1 (relative stereo) [Example 194] | 6.5
N#Cc1cnc(NCc2ccccc2Cl)nc1NC[C@]12CC3C[C@H](C1)[C@@H](NCC(=O)N1CCC(O)CC1)[C@@H](C3)C2 (relative stereo) [Example 204] | 11
CSc1ccccc1CNc1ncc(C#N)c(NC[C@]23CC4C[C@H](C2)[C@@H](NC[C@H]2CC[C@@H](O)CC2)[C@@H](C4)C3)n1 (relative stereo) [Example 264] | 1.9
N#Cc1cnc(NCCc2cccc(Cl)c2)nc1NC[C@]12CC3C[C@H](C1)[C@@H](N)[C@@H](C3)C2 (relative stereo) [Example 292] | 10
CC(Nc1ncc(C#N)c(NC[C@]23CC4C[C@H](C2)[C@@H](N)[C@@H](C4)C3)n1)c1ccccc1Cl (relative stereo) [Example 302] | 14
N#Cc1cnc(NCc2ccccc2Cl)nc1NC[C@]12CC3C[C@H](C1)[C@@H](NC[C@H]1CC[C@H](CO)CC1)[C@@H](C3)C2 (relative stereo) [Example 341] | 1.7
N[C@@H]1[C@@H]2CC3C[C@H]1C[C@@](CNc1nc(NCc4ccccc4OC(F)(F)F)ncc1[N+](=O)[O-])(C3)C2 (relative stereo) [Example 388] | 3.3
N[C@@H]1[C@@H]2CC3C[C@H]1C[C@@](CNc1nc(NCc4ccccc4OC(F)(F)F)ncc1F)(C3)C2 (relative stereo) [Example 390] | 2.1
N#Cc1cnc(NCc2ccccc2OC(F)(F)F)nc1NCC1CN2CCC1CC2 (centres unmarked) [Example 48] | 54
N#Cc1cnc(NCc2ccccc2OC(F)(F)F)nc1NC[C@]12CC3C[C@H](C1)C[C@@](CN)(C3)C2 [Example 57] | 15
N#Cc1cnc(NCc2ccccc2OC(F)(F)F)nc1NC[C@H]1C[C@H](N)C1 [Example 125] | 89
N#Cc1cnc(NCc2ccccc2OC(F)(F)F)nc1NC[C@@H]1CC[C@@H](N)C1 [Example 126] | 100
COc1ccc(CO)cc1CNc1ncc(C#N)c(NC[C@]23CC4C[C@H](C2)[C@@H](N)[C@@H](C4)C3)n1 [Example 139] | 13
N#Cc1cnc(NCCc2ccc(O)cc2)nc1NC[C@]12CC3C[C@H](C1)[C@@H](N)[C@@H](C3)C2 [Example 145] | 1.6
N#Cc1cnc(NCc2ccccc2OC(F)(F)F)nc1NCCC(=O)N1CCNCC1 [Example 156] | 67
N#Cc1cnc(NCc2cccnc2Cl)nc1NC[C@]12CC3C[C@H](C1)[C@@H](N)[C@@H](C3)C2 [Example 165] | 2.3
N#Cc1cnc(NCc2ccccc2OC(F)(F)F)nc1NCC1CC2CCC(C1)N2 (centres unmarked) [Example 170, 4-[(8-azabicyclo[3.2.1]oct-3-ylmethyl)amino]-2-{[2-(trifluoromethoxy)benzyl]amino}pyrimidine-5-carbonitrile dihydrochloride] | 110
N#Cc1cnc(NCc2ccccc2OC(F)(F)F)nc1NCC1[C@@H]2CC3C[C@H]1C[C@@](CN)(C3)C2 (some centres unmarked) [Example 183] | 29
N#Cc1cnc(Nc2cccc(Br)c2)nc1NC[C@]12CC3C[C@H](C1)[C@@H](N)[C@@H](C3)C2 [Example 187] | 3.8
COc1ccccc1CNc1ncc(C#N)c(NC[C@]23CC4C[C@H](C2)[C@@H](NCC(O)CCO)[C@@H](C4)C3)n1 (some centres unmarked) [Example 189] | 1.7
N#Cc1cnc(NCc2ccccc2Cl)nc1NC[C@]12CC3C[C@H](C1)C(N1CCNCC1)[C@@H](C3)C2 (some centres unmarked) [Example 319] | 4
N#Cc1cnc(NCc2ccccc2OC(F)(F)F)nc1NCCC(=O)N1CCCNCC1 [Example 387] | 77

The next lines start with the values.

IC50 [nM] | SMILES
1.3 | N#Cc1cnc(NCc2ccccc2Cl)nc1NC[C@]12CC3C[C@H](C1)[C@@H](NCCCO)[C@@H](C3)C2 (relative stereo) [Example 28]
1.1 | N#Cc1cnc(NCc2ccccc2Cl)nc1NC[C@]12CC3C[C@H](C1)[C@@H](N[C@H]1CC[C@H](O)CC1)[C@@H](C3)C2 (relative stereo) [Example 60]
0.65 | N#Cc1cnc(NCc2ccccc2OC(F)(F)F)nc1NC[C@]12CC3C[C@H](C1)[C@@H](NC1CCOCC1)[C@@H](C3)C2 (relative stereo) [Example 74]
1.6 | N#Cc1cnc(NCc2ccccc2Cl)nc1NC[C@]12CC3C[C@H](C1)[C@@H](NCCN1CCC(O)CC1)[C@@H](C3)C2 (relative stereo) [Example 208]
0.064 | N#Cc1cnc(NCc2ccccc2OC(F)(F)F)nc1NC[C@]12CC3C[C@H](C1)[C@@H](NC1CCC(N4CCC[C@H]4CO)CC1)[C@@H](C3)C2 (relative stereo) [Example 240]
0.31 | CC(C)N1CCC(N[C@@H]2[C@@H]3CC4C[C@H]2C[C@@](CNc2nc(NCc5ccccc5OC(F)(F)F)ncc2C#N)(C4)C3)CC1 (relative stereo) [Example 246]
0.28 | N#Cc1cnc(NCc2ccccc2OC(F)(F)F)nc1NC[C@]12CC3C[C@H](C1)[C@@H](N[C@H]1CC[C@@H](NC4CCOCC4)CC1)[C@@H](C3)C2 (relative stereo) [Example 284]
0.86 | N#Cc1cnc(NCc2ccccc2Cl)nc1NC[C@]12CC3C[C@H](C1)C(N1CCC(N)CC1)[C@@H](C3)C2 (relative stereo) [Example 318]
0.48 | CSc1ncccc1CNc1ncc(C#N)c(NC[C@]23CC4C[C@H](C2)[C@@H](NC[C@H]2CC[C@H](CO)CC2)[C@@H](C4)C3)n1 (relative stereo) [Example 342]
0.41 | N#Cc1cnc(NCc2ccccc2OC(F)F)nc1NC[C@]12CC3C[C@H](C1)[C@@H](NC[C@H]1CC[C@H](O)CC1)[C@@H](C3)C2 (relative stereo) [Example 348]
1.2 | N#Cc1cnc(NCc2ccccc2Cl)nc1NC[C@]12CC3C[C@H](C1)[C@@H](NCC1CCN(CC(F)F)CC1)[C@@H](C3)C2 (relative stereo) [Example 357]
0.58 | C[C@]1(O)CC[C@H](CN[C@@H]2[C@@H]3CC4C[C@H]2C[C@@](CNc2nc(NCc5ccccc5OC(F)(F)F)ncc2C#N)(C4)C3)CC1 (relative stereo) [Example 363]
0.7 | C[C@]1(O)CC[C@@H](CN[C@@H]2[C@@H]3CC4C[C@H]2C[C@@](CNc2nc(NCc5ccccc5OC(F)F)ncc2C#N)(C4)C3)CC1 (relative stereo) [Example 371]
1.6 | N#Cc1cnc(NCc2ccccc2Cl)nc1NC[C@]12CC3C[C@H](C1)[C@@H](NC1CCNCC1F)[C@@H](C3)C2 (relative stereo) [Example 383]
1 | N#Cc1cnc(NCc2ccccc2OC(F)(F)F)nc1NC[C@]12CC3C[C@H](C1)[C@@H](N1CCC(O)C1)[C@@H](C3)C2 (some centres unmarked) [Example 11]
0.83 | N#Cc1cnc(NCc2ccccc2Cl)nc1NC[C@]12CC3C[C@H](C1)[C@@H](NC1CCN(C(=O)CO)CC1)[C@@H](C3)C2 [Example 205]
0.96 | N#Cc1cnc(NCc2ccccc2Cl)nc1NC[C@]12CC3C[C@H](C1)[C@@H](N1CC(O)C1)[C@@H](C3)C2 [Example 211]
